Here are results for 16 molecules from patent US5369016A, “Peptide amidase and the use thereof” (Forschungszentrum Juelich GmbH, priority 1990, dated 1994).

Square brackets hold non-standard residues; d marks the D form. Peptide text beside a SMILES is read from it. * marks the point of attachment. Cbz = O=C(OCc1ccccc1)*

In data set [1] the test system is peptide amidase. As to the kind of experiment: Effect of organic solvents on enzyme stability. The format is biochemical, orange. The conditions noted are these: 27.8% solvent, 30° C.; acetone, acetonitrile, DMF, ethanol compared. The protocol: Ten identical mixtures of the following composition:
50 μl of enzyme solution (40 μg of protein/mixture)
were incubated at 30° C. At various times, the reaction was initiated by the addition of substrate (Z-Gly-Tyr-NH2 in 100 μl of buffer/solvent 1:1, corresponding to 10 mM/mixture) and the activity was measured.

Data set [2] deals with peptide amidase. Briefly: Deamidation of tripeptides containing D-amino acids (stereospecificity). Type of data set: biochemical, orange. As to conditions: 12 h. The protocol:
Column: RP 18, 0.1 ml/min
Eluent: Solution of TBA (tetrabutylammonium hydrogen sulfate) and […]

In data set [3] the test system is peptide amidase. Briefly: Enzymatic reaction of peptide amides with a chain length of greater than three amino acids. The format is biochemical, orange. The protocol:
Enzymatic reaction of peptide amides with a chain length of greater than
three amino acids. Reaction conditions: 10 mM substrate, 40 μg/ml
50 mM tris/HCL, pH 7.0, temp. 30° C.

Data set [4] deals with peptide amidase. Briefly: Enzymatic cleavage of N-terminal protected dipeptide amides. Type of data set: biochemical, orange. As to conditions: peptide amidase. The text has this: The results in Table 7 were obtained using an eluent: TBA/acetonitrile 60/40 (% volume)
The subject of data set [5] is peptide amidase. As to the kind of experiment: Continuous deamidation of H-Tyr-Arg-NH2 in an enzyme membrane reactor (EMR). The format is biochemical, orange. The conditions noted are these: 20 mM substrate, residence time 30 minute, enzyme 0.15 mg/ml. The protocol:
A continuous process for deamidation of H-Tyr-Arg-NH2 was carried out in an EMR. The conditions for operating the EMR (corresponding to a continuously operated stirred vessel reactor) permitted a more economic utilization of the enzyme because the enzyme was removed by ultrafiltration before the product was purified. The process was carried out under the following conditions: […]

For data set [6], the system named is peptide amidase purified from orange flavedo. Briefly: Cleavage of peptide amides with free N termini and of side chain amides. As to conditions: amides of amino acid side chains (Asn; Gln); amino acid analyzer; 10000 µM. The format is biochemical. The protocol:
Enzyme activity measured for the deamidation of dipeptide amides with free N termini (e.g. H-Tyr-Arg-NH2) was considerably higher than for peptide amides with an aromatic protective group, such as Z- or Bz-. Activity levels were up to 100 times higher than those measured with protected peptide amides.
Amides of amino acid side chains (Asn; Gln) Analysis
Eluent (HPLC): TBA/acetonitrile 95/5 or 96/4(*)
Reaction conditions: 10 mM substrate; 50 μg/ml peptide amidase; 50 mM
tris/HCl; pH 7.0; temperature 30° C.

Data set [7] is described as follows: Comparison of the activity of peptide amidase and CPD-Y (pH-stat). The conditions noted are these: for Amino-acid amidase activity (percent) / Amino-acid amidase activity (yes/no): strength varies depending on the amide of the amino acid. Type of data set: biochemical. The protocol: The enzyme has neither peptidase activity nor amino acid amidase activity, as is evident from the results presented in Table 1 comparing the activities of a purified peptide amidase to carboxypeptidase Y in both its native and modified form.
Comparison of the activity of peptide amidase and CPD-Y;
Conditions for the determination of peptide amidase activity:
30 mM of different substrates, pH 9, 22° C., pH-stat
For the purposes of this disclosure, specific activity is defined as follows: 1 U/mg of enzyme can convert 1 μmol of substrate per minute.

The mark [8] stands for this setting: peptide amidase, 6 h, 10000 µM, pH 7.
The mark [9] stands for this setting: 10 mM substrate, 40 μg/ml peptide amidase, 50 mM tris/HCL, pH 7.0, 30° C., 360 min.

Take `CN(C)C=O` [DMF, dimethylformamide]: in the data set with peptide amidase [1], the “decrease in enzyme activity on incubation with solvent (in words)” value was “smallest decrease in enzyme activity”.

For the molecule `C[C@@H](NC(=O)[C@@H]1CCCN1C(=O)[C@@H](N)CCCNC(=N)N)C(N)=O` [H--Arg--Pro--D-Ala--NH2] (H-Arg-Pro-[dA]-NH2), the Conversion in the data set on peptide amidase [2] was 0 %/12 hours.

In turn, `NCC(=O)N[C@H](Cc1ccccc1)C(=O)N[C@@H](Cc1ccc(O)cc1)C(N)=O` [H--Gly--D-Phe--Tyr--NH2] (H-Gly-[dF]-Tyr-NH2) had a Conversion with peptide amidase [2] of 100 %/12 hours.

`NCC(=O)N[C@@H](Cc1ccccc1)C(=O)N[C@H](Cc1ccccc1)C(N)=O` [H--Gly--Phe--D-Phe--NH2] (H-Gly-Phe-[dF]-NH2) registered a Conversion with peptide amidase [2] of 0 %/12 hours.

Turning to `CC(C)C[C@H](NC(=O)CNC(c1ccccc1)(c1ccccc1)c1ccccc1)C(=O)N[C@H](C(N)=O)C(C)C` [Trt--Gly--Leu--Val--NH2], the values for the Yield in the data set with peptide amidase [3] (setting [8]) and with peptide amidase [4] were 100 %/6 h and 95%, respectively.

The molecule `N=C(N)NCCC[C@H](NC(=O)[C@@H](N)Cc1ccc(O)cc1)C(N)=O` [Tyr--Arg--NH2, H-Tyr-Arg-NH2] showed a Mean conversion in the data set on peptide amidase [5] of 92%.

As to `CC(C)C[C@H](NC(=O)CNC(=O)CNC(=O)OCc1ccccc1)C(N)=O` [Z--Gly--Gly--Leu--NH2] (Cbz-Gly-Gly-Leu-NH2), the Yield in the data set with peptide amidase [3] (setting [8]) came out at 100 %/6 h; with peptide amidase [4], 100%.

Consider `CC(C)C[C@H](NC(=O)[C@@H]1CCCN1C(=O)OCc1ccccc1)C(=O)NCC(N)=O` [Z--Pro--Leu--Gly--NH2] (Cbz-Pro-Leu-Gly-NH2), for which the Yield in the data set on peptide amidase [3] (setting [8]) came out at 100 %/6 h; with peptide amidase [4] it was 90%.

In the data set on peptide amidase [3] (setting [8]), `CC(C)[C@H](NC(=O)OCc1ccccc1)C(=O)NCC(=O)N[C@@H](C)C(=O)N1CCC[C@H]1C(N)=O` [Z--Val--Gly--Ala--Pro--NH2] (Cbz-VGAP-NH2) had a Yield of 0 %/6 h.

Take Boc--cys(bzl)--Pro--Arg--Gly--NH2: in the data set on peptide amidase [3] (setting [9]), the Yield is given as 90 %/6 h.

Take H--Ala--Asn: the Conversion in data set [6] came out at 0%.

In data set [6], H--Ala--Gln displayed a Conversion of 0%.

Turning to H--Leu--Arg--Asn, in data set [6], the Conversion came out at 0%.

In the data set with peptide amidase [3] (setting [9]), “Luteinizing Hormone Releasing Factor [LHRH]” registered a Yield of 90 %/6 h.

B1: Carboxypeptidase Y [CPD-Y (native)] (protein, UniProt P00729 112-532, looked up)
Carboxypeptidase Y: KIKDPKILGIDPNVTQYTGYLDVEDEDKHFFFWTFESRNDPAKDPVILWLNGGPGCSSLTGLFFELGPSSIGPDLKPIGNPYSWNSNATVIFLDQPVNVGFSYSGSSGVSNTVAAGKDVYNFLELFFDQFPEYVNKGQDFHIAGESYAGHYIPVFASEILSHKDRNFNLTSVLIGNGLTDPLTQYNYYEPMACGEGGEPSVLPSEECSAMEDSLERCLGLIESCYDSQSVWSCVPATIYCNNAQLAPYQRTGRNVYDIRKDCEGGNLCYPTLQDIDDYLNQDYVKEAVGAEVDHYESCNFDINRNFLFAGDWMKPYHTAVTDLLNQDLPILVYAGDKDFICNWLGNKAWTDVLPWKYDEEFASQKVRNWTASITDEVAGEVKSYKHFTYLRVFNGGHMVPFDVPENALSMVNEWIHGGFSL
On to B1, for which, in data set [7], the Peptidase activity entry is given as “yes”, the “Amino-acid amidase activity (percent)” value is given as 0-92% and the “Amino-acid amidase activity (yes/no)” value was “yes”. For the same molecule, the Specific activity in data set [7] (30 mM of different substrates, pH 9, 22° C., pH-stat) worked out at 0.0082 U/mg protein.

B2: Carboxypeptidase Y [CPD-Y (modified)] (protein, UniProt P00729 112-532, looked up)
Carboxypeptidase Y: KIKDPKILGIDPNVTQYTGYLDVEDEDKHFFFWTFESRNDPAKDPVILWLNGGPGCSSLTGLFFELGPSSIGPDLKPIGNPYSWNSNATVIFLDQPVNVGFSYSGSSGVSNTVAAGKDVYNFLELFFDQFPEYVNKGQDFHIAGESYAGHYIPVFASEILSHKDRNFNLTSVLIGNGLTDPLTQYNYYEPMACGEGGEPSVLPSEECSAMEDSLERCLGLIESCYDSQSVWSCVPATIYCNNAQLAPYQRTGRNVYDIRKDCEGGNLCYPTLQDIDDYLNQDYVKEAVGAEVDHYESCNFDINRNFLFAGDWMKPYHTAVTDLLNQDLPILVYAGDKDFICNWLGNKAWTDVLPWKYDEEFASQKVRNWTASITDEVAGEVKSYKHFTYLRVFNGGHMVPFDVPENALSMVNEWIHGGFSL
modifications: chemically modified
notes: carboxypeptidase Y in a chemically modified form
With B2, in data set [7], the “Amino-acid amidase activity (percent)” value is on record as 0-77% and the “Amino-acid amidase activity (yes/no)” value is listed as “yes”.
